Blank lines part the entries; values can stand above or below the compound they belong to.
Legend:
MSH3 Exon 21A = assay: Splicing and RNA expression changes, poison exon 21A (FIGS. 6-8); type: cell-based; details: FIG. 8; for total RNA: e.g., due to NMD
Description: (§1) Poison exons were identified in endogenous MSH3 genome by employing a proprietary bioinformatics pipeline screening for cryptic exons in combination with examining poison exon candidates that could be regulated by an agent described herein or by nonsense mediated decay (NMD) using cycloheximide. FIG. 6 and FIG. 7 illustrate identification of Exon 21A, but not Exon 21B, as a poison exon that could be regulated by the agent described herein. FIG. 8 and FIG. 9 illustrate mutations that can be introduced into the poison exon (Exon 21A and Exon 14A_1 or Exon 14A_2, respectively), where the mutated nucleotide bases (e.g., CAG) could further enhance the suppression of the MSH3 expression. Such mutations can be utilized as a method or a system for screening additional candidate agents. FIG. 8 illustrates splicing and RNA expression changes for targets regulated by an agent described herein. […] FIG. 8 also illustrates how mutating a poison exon (e.g., from ATA to CAG) increased percentage of splice inclusion of Exon 21A from 0.13 to 0.98. Such mutations can be useful for designing a method or a system for screening additional agents for modulating splicing in of poison exon into a mRNA (e.g., as shown in FIG. 10). FIG. 9 illustrates splicing and RNA expression changes for targets regulated by an agent described herein. […] FIG. 9 also illustrates how mutating the poison exon (e.g., from TGA to CAG) increased percentage of splice inclusion of Exon 14A_1 from 0.00 to 0.59. Such mutations can be useful for designing a method or a system for screening additional agents for modulating splicing in of poison exon into a mRNA (e.g., as shown in FIG. 10). […] FIG. 10A illustrates engineered minigene donor (e.g., by mutating endogenous trinucleotides to CAG as shown in FIG. 8 and FIG. 9) for driving expression of a luciferase reporter gene. FIG. 10B illustrates minigene PCR showing the presence of the poison exon comprising the CAG mutation. […] FIG. 10C illustrates increased luciferase signal generated by the presence of the minigene comprising the poison exon comprising the CAG mutation.

[1] = system: MSH3 Exon 14A_1 or Exon 14A_2; assay: Splicing and RNA expression changes, poison exon 14A_1 or 14A_2 (FIG. 9); type: cell-based; details: for total RNA: e.g., due to NMD
Description: as §1

MSH3 = assay: QPCR assay for levels of MSH3 upon compound treatment in HEK293T or AD293 cells (fold-change of MSH3 transcript, EC50 of MSH3 downregulation; total MSH3 exons 13/14, exons 20/21; Table 8); type: cell-based; details: for mrna remaining at 1 µM / mrna remaining at 10 µM: Homo sapiens, fold-change of the MSH3 transcript, normalized to GAPDH; for mrna remaining at 1 µM: 1 μM compound; for mrna remaining at 10 µM: 10 μM compound
Summary of the method: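 HEK293T or AD293 cells were treated at 1 μM and […]; RNA-to-cDNA qPCR used TaqMan assays for total MSH3 (exons 13/14, exons 20/21) and poison-exon junctions exon 13/PE14A and exon 20/PE21A. Transcript levels were normalized to GAPDH.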

MSH3 poison exon 14A [2] = assay: RT-PCR of MSH3 exon 13/PE14A and PE14A/exon 14 amplicons in HEK293 cells (FIG. 13); type: cell-based, human; details: 24 hours
Procedure: (§2) To further validate MSH3 poison exon 14A, RT-PCR was used to analyze MSH3 exon 13/poison exon 14A, and poison exon 14A/exon 14 amplicons. Briefly, Cynomolgus monkey primary dermal fibroblasts (Cellosaurus) and HEK293 cells (ATCC) were cultured in DMEM (ThermoFisher Scientific) supplemented with 10% fetal bovine serum (Avantor) and 0.1 μg/mL Primocin (Invivogen). All cell lines were maintained at sub-confluency and grown in a humidified incubator at 37° C. with 5% CO2. RNA was purified using Qiashredder and RNeasy kits (Qiagen), cDNA was prepared with MultiScribe Reverse Transcriptase (ThermoFisher Scientific) and PCR with GoTaq Green Master Mix (Promega). Primers (IDT) used were the following: Fwd-Exon 13 (5′-[…] (SEQ ID NO: 20)), Rev-PE14A (5′-[…] (SEQ ID NO: 21)), Fwd-PE14A (5′-[…] (SEQ ID NO: 22)), Rev-Exon 14 (5′-[…] (SEQ ID NO: 23)), Fwd-GAPDH (5′-[…] (SEQ ID NO: 24)), Rev-GAPDH (5′-ACCCGTTGACTCCGACCT (SEQ ID NO: 25)).

MSH3 protein = assay: Western blot of MSH3 protein in HEK293 WT and PE5 CAG clones (FIG. 12C); type: cell-based, human
Procedure: (§3) In this example, MSH3 poison exon 14A (PE5) and poison exon 21A (PE4) were validated. Briefly, HEK293 parental and clonal cells (Synthego) were cultured in DMEM (ThermoFisher Scientific) supplemented with 10% fetal bovine serum (Avantor) and 0.1 μg/mL Primocin (Invivogen). All cell lines were maintained at sub-confluency and grown in a humidified incubator at 37° C. with 5% CO2. HEK293 clonal cells were generated by Synthego's proprietary CRISPR methods to replace PE14A 5′ splice site with a strong donor (TGAGTTG>CAGGTTA) at the endogenous locus. Two clones (C3 and H2) were isolated to express 99-100% of the desired knock-in mutation. Two clones were generated from the parental line HEK293 without any editing (wild-type WTl3 and WT7) to be used as controls. […] RNA, cDNA and qPCR was prepared using TaqMan Cells-to-CT Express kit (ThermoFisher Scientific). Taqman assays (ThermoFisher Scientific) were used for quantification of total MSH3 exons 13/14 (cat #4351372, ID #: Hs00988993_ml), total MSH3 exons 20/21 (cat #4351372, ID #: Hs00989000_ml), exon 13/PE14A (Fwd: 5′-[…] (SEQ ID NO: 14); Rev: 5′-[…] (SEQ ID NO: 15); Probe: 5′-[…] (SEQ ID NO: 16)) and exon 20/PE21A (Fwd: 5′-[…] (SEQ ID NO: 17); Rev: 5′-[…] (SEQ ID NO: 18); Probe: 5′-[…] (SEQ ID NO: 19)) mRNA expression. […] Protein concentrations were determined by Rapid Gold BCA (ThermoFisher Scientific). […]

MSH3 poison exon 14A [3] = assay: RT-PCR of MSH3 exon 13/PE14A and PE14A/exon 14 amplicons in cynomolgus monkey fibroblasts (FIG. 13); type: cell-based; details: 24 hours
Procedure: as §2

[4] = system: MSH3 exon 13/PE14A mRNA (PE5); assay: qPCR of MSH3 PE5 (exon 13/PE14A) in HEK293 WT and PE14A CAG clones (FIG. 11B); type: cell-based, human
Procedure: as §3

MSH3 exons 20/21 mRNA = assay: qPCR of total MSH3 exons 20/21 in HEK293 WT and PE14A CAG clones (FIG. 12A); type: cell-based, human; details: HEK293 wild-type clones, 24 hours
Procedure: as §3

MSH3 exons 13/14 mRNA = assay: qPCR of total MSH3 exons 13/14 in HEK293 WT and PE14A CAG clones (FIG. 11A); type: cell-based, human
Procedure: as §3

[5] = system: MSH3 exon 20/PE21A mRNA (PE4); assay: qPCR of MSH3 PE4 (exon 20/PE21A) in HEK293 WT and PE14A CAG clones (FIG. 12B); type: cell-based, human; details: HEK293 wild-type clones, 24 hours
Procedure: as §3

[6] = HEK293 wild-type clones, 24 hours

Compound: C[C@@H]1C[C@@H]([C@H](O)CC2CC(=O)NC(=O)C2)C(=O)[C@@H](C)C1 [CHX, cycloheximide, reference compound]
- poison exon expression (Exon 21A) (MSH3 Exon 21A): increased poison exon expression
- total RNA (MSH3 Exon 21A): decreased total RNA
- poison exon expression (Exon 14A_1 or Exon 14A_2) [1]: increased poison exon expression
- total RNA [1]: decreased total RNA

Compound: CN(c1ccc(N2Cc3cnc(-c4cnn(C)c4)cc3C2=O)nn1)C1CCNCC1 [Compound 1, 2-(6-(methyl(piperidin-4-yl)amino)pyridazin-3-yl)-6-(1-methyl-1H-pyrazol-4-yl)-2,3-dihydro-1H-pyrrolo[3,4-c]pyridin-1-one]
- poison exon expression (Exon 21A) (MSH3 Exon 21A): increased poison exon expression
- total RNA (MSH3 Exon 21A): decreased total RNA
- poison exon expression (Exon 14A_1 or Exon 14A_2) [1]: increased poison exon expression
- total RNA [1]: decreased total RNA

Compound: CN(c1ccc(N2Cc3c(C#N)cc(-c4nn(C)nc4Cl)cc3C2=O)nn1)C1C[C@]2(C)CC[C@](C)(C1)N2 (stereo partly drawn) [Compound 685, 6-(5-chloro-2-methyl-2H-1,2,3-triazol-4-yl)-2-(6-(((1R,5S)-1,5-dimethyl-8-azabicyclo[3.2.1]octan-3-yl)(methyl)amino)pyridazin-3-yl)-1-oxoisoindoline-4-carbonitrile]
- mrna remaining at 1 µM (MSH3): 24%
- mrna remaining at 10 µM (MSH3): 20%

Compound: COc1cc(-c2nn(C)nc2Cl)cc2c1CN(c1ccc(N(C)[C@H]3C[C@]4(C)CC[C@](C)(C3)N4)nn1)C2=O [Compound 686, 6-(5-chloro-2-methyl-2H-1,2,3-triazol-4-yl)-2-(6-(((1R,3s,5S)-1,5-dimethyl-8-azabicyclo[3.2.1]octan-3-yl)(methyl)amino)pyridazin-3-yl)-4-methoxyisoindolin-1-one]
- mrna remaining at 1 µM (MSH3): 109%
- mrna remaining at 10 µM (MSH3): 26%

Compound: COc1cc(-c2nn(C)nc2C)cc2c1CN(c1ccc(N(C)[C@H]3C[C@]4(C)CC[C@](C)(C3)N4)nn1)C2=O [Compound 687, 6-(2,5-dimethyl-2H-1,2,3-triazol-4-yl)-2-(6-(((1R,3s,5S)-1,5-dimethyl-8-azabicyclo[3.2.1]octan-3-yl)(methyl)amino)pyridazin-3-yl)-4-methoxyisoindolin-1-one]
- mrna remaining at 1 µM (MSH3): 110%
- mrna remaining at 10 µM (MSH3): 19%

Compound: COc1cc(-c2nn(C)nc2C)cc2c1CN(c1ccc(OC3CC(C)(C)NC(C)(C)C3)nn1)C2=O [Compound 688, 6-(2,5-dimethyl-2H-1,2,3-triazol-4-yl)-4-methoxy-2-(6-((2,2,6,6-tetramethylpiperidin-4-yl)oxy)pyridazin-3-yl)isoindolin-1-one]
- mrna remaining at 1 µM (MSH3): 123%
- mrna remaining at 10 µM (MSH3): 86%

Compound: CN(c1ccc(N2Cc3c(O)cc(-c4nn(C)nc4Cl)cc3C2=O)nn1)[C@H]1C[C@]2(C)CC[C@](C)(C1)N2 [Compound 689, 6-(5-chloro-2-methyl-2H-1,2,3-triazol-4-yl)-2-(6-(((1R,3s,5S)-1,5-dimethyl-8-azabicyclo[3.2.1]octan-3-yl)(methyl)amino)pyridazin-3-yl)-4-hydroxyisoindolin-1-one]
- mrna remaining at 1 µM (MSH3): 88%
- mrna remaining at 10 µM (MSH3): 27%

Compound: CN(c1ccc(N2Cc3c(C#N)cc(-c4nnn(C)n4)cc3C2=O)nn1)[C@H]1C[C@]2(C)CC[C@](C)(C1)N2 [Compound 693, 2-(6-(((1R,3s,5S)-1,5-dimethyl-8-azabicyclo[3.2.1]octan-3-yl)(methyl)amino)pyridazin-3-yl)-6-(2-methyl-2H-tetrazol-5-yl)-1-oxoisoindoline-4-carbonitrile]
- mrna remaining at 1 µM (MSH3): 94%
- mrna remaining at 10 µM (MSH3): 40%

- EC50 (MSH3; EC50 of MSH3 downregulation, XtalPi): 11100 nM
Compound: Cc1cn(-c2cc(C#N)c3c(c2)C(=O)N(c2ccc(N(C)[C@H]4C[C@]5(C)CC[C@](C)(C4)N5)nn2)C3)nn1 [Compound 695, 2-(6-(((1R,3s,5S)-1,5-dimethyl-8-azabicyclo[3.2.1]octan-3-yl)(methyl)amino)pyridazin-3-yl)-6-(4-methyl-1H-1,2,3-triazol-1-yl)-1-oxoisoindoline-4-carbonitrile]

Compound: Cc1nn(C)cc1-c1cc(F)c2c(c1)C(=O)N(c1ccc(N(C)[C@H]3C[C@]4(C)CC[C@](C)(C3)N4)nn1)C2 [Compound A]
- 13/PE14A amplicon (MSH3 poison exon 14A [2]): increase
- PE14A/14 amplicon (MSH3 poison exon 14A [2]): increase
- MSH3 protein levels (MSH3 protein; PE5 CAG clones): decreased in MSH3 levels
- MSH3 protein levels (MSH3 protein; wild-type clones): decreased in MSH3 levels
- 13/PE14A amplicon (MSH3 poison exon 14A [3]): increase
- PE14A/14 amplicon (MSH3 poison exon 14A [3]): increase
- PE5-specific expression [4, 6]: increasing PE5-specific expression
- further increase of PE5 ([4]; PE5 CAG clones C3 and H2, 24 hours, starting at 0.3-1 μM): 20-30%
- MSH3 expression (total, exons 20/21) (MSH3 exons 20/21 mRNA): lowering MSH3 expression
- MSH3 expression (total, exons 13/14) (MSH3 exons 13/14 mRNA; [6]): lowering MSH3 expression
- MSH3 expression (total, exons 13/14) (MSH3 exons 13/14 mRNA; PE5 CAG clones C3 and H2, 24 hours): No further decrease
- PE4-specific expression [5]: increasing PE4-specific expression
